Test results from PubChem BioAssay AID602354 (The Scripps Research Institute Molecular Screening Center, 2012).

Experiments:
[1] = target: Diacylglycerol lipase-beta (Mus musculus) (UniProt Q91WC9); assay: in situ DAGLb and ABHD6 inhibitor potency – cell-based, gel-based competitive ABPP, fluorescence, dose response, late-stage follow-up (AID 602354); details: mouse cells in situ, DAGLb
[2] = target: Monoacylglycerol lipase ABHD6 (Mus musculus) (UniProt Q8R2Y0); assay: as above; details: mouse cells in situ
Monoacylglycerol lipase ABHD6 (Mus musculus), sequence (Q8R2Y0 whole entry, looked up): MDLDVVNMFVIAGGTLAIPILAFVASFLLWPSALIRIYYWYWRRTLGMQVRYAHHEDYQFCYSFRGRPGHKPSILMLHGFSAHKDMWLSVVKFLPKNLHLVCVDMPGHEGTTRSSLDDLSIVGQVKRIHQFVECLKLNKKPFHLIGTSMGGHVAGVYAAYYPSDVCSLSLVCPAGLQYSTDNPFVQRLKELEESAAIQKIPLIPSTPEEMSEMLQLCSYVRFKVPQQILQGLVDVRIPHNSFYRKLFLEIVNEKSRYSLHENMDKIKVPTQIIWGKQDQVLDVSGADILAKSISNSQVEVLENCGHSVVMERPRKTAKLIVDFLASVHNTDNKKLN

Diacylglycerol lipase-beta (Mus musculus), sequence (Q91WC9 whole entry, looked up): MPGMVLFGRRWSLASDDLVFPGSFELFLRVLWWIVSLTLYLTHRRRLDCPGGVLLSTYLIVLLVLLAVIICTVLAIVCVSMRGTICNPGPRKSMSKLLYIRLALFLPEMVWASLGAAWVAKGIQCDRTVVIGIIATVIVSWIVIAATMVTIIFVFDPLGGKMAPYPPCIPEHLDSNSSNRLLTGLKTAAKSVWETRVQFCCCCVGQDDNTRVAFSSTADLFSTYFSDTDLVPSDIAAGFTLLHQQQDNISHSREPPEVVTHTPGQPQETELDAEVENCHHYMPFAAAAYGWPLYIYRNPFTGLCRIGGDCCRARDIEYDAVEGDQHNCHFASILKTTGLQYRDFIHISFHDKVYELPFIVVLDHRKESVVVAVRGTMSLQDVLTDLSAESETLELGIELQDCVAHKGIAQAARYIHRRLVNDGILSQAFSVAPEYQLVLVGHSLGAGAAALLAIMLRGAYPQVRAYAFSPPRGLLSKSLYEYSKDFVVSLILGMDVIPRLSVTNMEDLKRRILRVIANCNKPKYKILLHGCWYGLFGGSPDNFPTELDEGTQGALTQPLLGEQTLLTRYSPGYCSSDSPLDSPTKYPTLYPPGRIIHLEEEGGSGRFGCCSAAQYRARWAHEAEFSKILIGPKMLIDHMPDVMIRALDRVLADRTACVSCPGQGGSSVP

Compound | IC50 [1] | IC50 [2]
O=C(N1CCCCC1Cc1ccccc1)n1cc(-c2ccc(-c3ccccc3)cc2)nn1 (centres undefined) | 16 nM | 0.46 nM
COc1ccccc1-c1ccc(-c2cn(C(=O)N3CCCCC3Cc3ccccc3)nn2)cc1 (centres undefined) | 12 nM | 0.48 nM
